The text below walks through data of PubChem BioAssay AID1259411 (Chemical Carcinogenesis Research Information System (CCRIS), 2018).

Entries after “also recorded” stand apart in the source; their conditions may differ. Calls of active or inactive are those of the source. No rule for the calls is given here.

In this data set the test system is rodent carcinogenicity bioassays, tumor incidence. The data set is described as follows: CCRIS carcinogenicity studies. In a few lines:
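NCI-built, expert-reviewed records of carcinogenicity and related test outcomes (mutagenicity, tumor promotion/inhibition) compiled from published and report sources, historical span 1985-2011, not updated.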

For the compound `Cn1c(N)nc2c3cccnc3ccc21`, the carcinogen call is, setting by setting: (Species: MONKEY, Strain/Sex: MACAQUE/MALE,FEMALE, Route: GAVAGE, Dose: 0, 10, 20 MG/KG 5/D/WK FOR DURATION OF STUDY (STUDY DURATION: 91 MO), Dose: 0, 10, 20 MG/KG 5/D/WK FOR DURATION OF STUDY (STUDY DURATION: 91 MO), Tumor Site: Type of Lesion: LIVER: HEPATOCELLULAR CARCINOMA) “active; positive”; (Species: MOUSE, Strain/Sex: B6C3F1/MALE, Route: INTRAPERITONEAL, Dose: 0, 0.625 UMOL IN 35 µL DMSO ON D 1, 8, AND 15 AFTER BIRTH (STUDY DURATION: 8 MO), Tumor Site: Type of Lesion: LIVER: HEPATOCELLULAR ADENOMA) “active; positive”; (Species: MOUSE, Strain/Sex: B6C3F1/MALE, Route: INTRAPERITONEAL, Dose: 0, 0.625 UMOL IN 35 µL DMSO ON D 1, 8, AND 15 AFTER BIRTH (STUDY DURATION: 12 MO), Tumor Site: Type of Lesion: LIVER: HEPATOCELLULAR ADENOMA) “active; positive”; (Species: MOUSE, Strain/Sex: B6C3F1/MALE, Route: INTRAPERITONEAL, Dose: 0, 1.25 UMOL IN 35 µL DMSO ON D 1, 8, AND 15 AFTER BIRTH (STUDY DURATION: 8 MO), Tumor Site: Type of Lesion: LIVER: HEPATOCELLULAR ADENOMA) “active; positive”; (Species: MOUSE, Strain/Sex: B6C3F1/MALE, Route: INTRAPERITONEAL, Dose: 0, 1.25 UMOL IN 35 µL DMSO ON D 1, 8, AND 15 AFTER BIRTH (STUDY DURATION: 12 MO), Tumor Site: Type of Lesion: LIVER: HEPATOCELLULAR ADENOMA, HEPATOCELLULAR CARCINOMA) “active; positive”; (Species: MOUSE, Strain/Sex: CD-1/FEMALE, Route: INTRAPERITONEAL, ORAL, Dose: 0, 5 µL OF A 14 MG/ML SOLUTION IN DMSO ON DAYS 1, 3, 5, 7, 10, 13, 17, 21, 24 AND 28 OF LIFE THEN 2/WK TO WK 10 FOLLOWED, Tumor Site: Type of Lesion: LIVER: CARCINOMA, LUNG: ADENOMA) “active; positive”. Further, the carcinogen call reads like this: (Species: MOUSE, Strain/Sex: CD-1/MALE, Route: INTRAPERITONEAL, ORAL, Dose: 0, 5 µL OF A 14 MG/ML SOLUTION IN DMSO ON DAYS 1, 3, 5, 7, 10, 13, 17, 21, 24 AND 28 OF LIFE THEN 2/WK TO WK 10 FOLLOWED, Tumor Site: Type of Lesion: LIVER: CARCINOMA) “active; positive”; (Species: MOUSE, Strain/Sex: CDF1/FEMALE, Route: ORAL, Dose: 0, 0.03% IN DIET FOR UP TO 675 D (STUDY DURATION: 675 D), Tumor Site: Type of Lesion: LIVER: HEPATOCELLULAR ADENOMA OR CARCINOMA OR HEMANGIOENDOTHELIOMA, FORESTOMACH: PAPILLOMA OR SQUAMOUS CELL CARCINOMA, L, Tumor Site: Type of Lesion: LIVER: HEPATOCELLULAR ADENOMA OR CARCINOMA OR HEMANGIOENDOTHELIOMA, FORESTOMACH: PAPILLOMA OR SQUAMOUS CELL CARCINOMA, L) “active; positive”; (Species: MOUSE, Strain/Sex: CDF1/MALE, Route: ORAL, Dose: 0, 0.03% IN DIET FOR UP TO 675 D (STUDY DURATION: 675 D), Tumor Site: Type of Lesion: LIVER: HEPATOCELLULAR ADENOMA OR CARCINOMA OR HEMANGIOENDOTHELIOMA, FORESTOMACH: PAPILLOMA OR SQUAMOUS CELL CARCINOMA, L, Tumor Site: Type of Lesion: LIVER: HEPATOCELLULAR ADENOMA OR CARCINOMA OR HEMANGIOENDOTHELIOMA, FORESTOMACH: PAPILLOMA OR SQUAMOUS CELL CARCINOMA, L) “active; positive”; (Species: MOUSE, Strain/Sex: EU-PIM-1/FEMALE, Route: ORAL, Dose: 0, 0.03% IN DIET FOR 24 WK (STUDY DURATION: 40 WK)) “inactive; negative”; (Species: MOUSE, Strain/Sex: EU-PIM-1/MALE, Route: ORAL, Dose: 0, 0.03% IN DIET FOR 24 WK (STUDY DURATION: 40 WK)) “inactive; negative”; (Species: MOUSE, Strain/Sex: NON-TRANSGENIC WILD-TYPE/FEMALE, Route: ORAL, Dose: 0, 0.03% IN DIET FOR 24 WK (STUDY DURATION: 40 WK)) “inactive; negative”. For the same compound, the carcinogen call was “inactive; negative” (Species: MOUSE, Strain/Sex: NON-TRANSGENIC WILD-TYPE/MALE, Route: ORAL, Dose: 0, 0.03% IN DIET FOR 24 WK (STUDY DURATION: 40 WK)); “active; positive” (Species: MOUSE, Strain/Sex: SEVERE COMBINED IMMUNODEFICIENT/FEMALE, Route: ORAL, Dose: 0, 300 PPM IN THE DIET FOR 78 WK (STUDY DURATION: 78 WK), Tumor Site: Type of Lesion: LIVER: HEPATOCELLULAR CARCINOMA); “inactive; negative” (Species: MOUSE, Strain/Sex: TRANSGENIC EU-PIM-1/FEMALE, Route: ORAL, Dose: 0, 0.03% IN DIET FOR 24 WK (STUDY DURATION: 40 WK)); “inactive; negative” (Species: MOUSE, Strain/Sex: TRANSGENIC EU-PIM-1/MALE, Route: ORAL, Dose: 0, 0.03% IN DIET FOR 24 WK (STUDY DURATION: 40 WK)); “inactive; negative” (Species: MOUSE, Strain/Sex: WILD-TYPE/FEMALE, Route: ORAL, Dose: 0, 0.03% IN DIET FOR 24 WK (STUDY DURATION: 40 WK)); “inactive; negative” (Species: MOUSE, Strain/Sex: WILD-TYPE/MALE, Route: ORAL, Dose: 0, 0.03% IN DIET FOR 24 WK (STUDY DURATION: 40 WK)). Also, the carcinogen call runs as follows: (Species: Mouse, Strain/Sex: Non transgenic rasH2 Wild-type/ Female (10/10)/(15/15), Route: Oral, Dose: 300 ppm in the diet starting at 7 weeks of age (Study duration: 26 weeks)) “inactive; negative: although only hyperplasia observed in wild-type mouse, forestomach pa”; (Species: Mouse, Strain/Sex: Non transgenic rasH2 Wild-type/ Male (10/10)/(15/15), Route: Oral, Dose: 300 ppm in the diet starting at 7 weeks of age (Study duration: 26 wks)) “inactive; negative; although only hyperplasia observed in wild-type mouse, forestomach pa”; (Species: Mouse, Strain/Sex: Parp-1+/+ C57BL/6/Male, Route: Oral, Dose: 300 ppm in diet for 60 wk, study duration 60 wk, Tumor Site: Type of Lesion: Spleen: Malignant lymphoma (3/18)) “active; positive (no lung adenomas or forestomach papillomas found). parp-1 deficiency (; also recorded: active; positive (however, no lung adenomas or forestomach papillomas found. parp-1 defi”; (Species: RAT, Strain/Sex: F344/MALE, Route: INTRARECTAL, Dose: 0, 50.5 MG/KG IN 1.7 ML/KG DMSO INFUSED 3/WK FOR 2 MO THEN 2/WK FOR DURATION OF STUDY (STUDY DURATION: 18 MO), Tumor Site: Type of Lesion: COLON: CARCINOMA, SKIN: SEBACEOUS SQUAMOUS CELL CARCINOMA) “active; positive”; (Species: RAT, Strain/Sex: SPRAGUE-DAWLEY/FEMALE, Route: GAVAGE, Dose: 0, 0.35 MMOL/KG BW IN 0.25 ML OF 5% EMULPHOR IN WATER 3/WK FOR WK 1-4 THEN 2/WK FOR WK 5-8 FOLLOWED BY 1/WK FOR 23 WK (S, Tumor Site: Type of Lesion: MAMMARY GLAND: CARCINOMA, LIVER: TUMOR, EAR DUCT: TUMOR, Tumor Site: Type of Lesion: MAMMARY GLAND: CARCINOMA, LIVER: TUMOR, EAR DUCT: TUMOR) “active; positive”; (Species: RAT, Strain/Sex: WISTAR/MALE, Route: INTRAGASTRIC, Dose: 0, 10 MG/KG IN ACIDIFIED WATER 1/D FOR 2 WK (STUDY DURATION: 58 WK)) “inactive; negative”.
Regarding `[Cr]`, the carcinogen call (Species: HUMAN, Route: INHALATION, ORAL, Tumor Site: Type of Lesion: LUNG) was “active; positive”.
With `Nc1cc([N+](=O)[O-])ccc1C(=O)O`, the carcinogen call by setting is: (Species: MOUSE, Strain/Sex: B6C3F1/FEMALE, Route: ORAL, Dose: 0, 0.46, 1.0% OF DIET, TWA, Dose: 0, 0.46, 1.0% OF DIET, TWA) “inactive; negative”; (Species: MOUSE, Strain/Sex: B6C3F1/MALE, Route: ORAL, Dose: 0, 0.46, 1.0% OF DIET, TWA, Dose: 0, 0.46, 1.0% OF DIET, TWA) “inactive; negative”; (Species: RAT, Strain/Sex: F344/FEMALE, Route: ORAL, Dose: 0, 0.46, 1.5% OF DIET, TWA, Dose: 0, 0.46, 1.5% OF DIET, TWA) “inactive; negative”; (Species: RAT, Strain/Sex: F344/MALE, Route: ORAL, Dose: 0, 0.46, 1.5% OF DIET, TWA, Dose: 0, 0.46, 1.5% OF DIET, TWA) “inactive; negative”.
Consider `O=C(O)CN(CCN(CC(=O)O)CC(=O)O)CC(=O)O`, for which the carcinogen call (Species: MOUSE, Strain/Sex: B6C3F1/FEMALE, Route: ORAL, Dose: 0, 3750, 7500 PPM IN DIET, Dose: 0, 3750, 7500 PPM IN DIET) was “inactive; negative”; the carcinogen call (Species: MOUSE, Strain/Sex: B6C3F1/MALE, Route: ORAL, Dose: 0, 3750, 7500 PPM IN DIET, Dose: 0, 3750, 7500 PPM IN DIET) was “inactive; negative”; the carcinogen call (Species: RAT, Strain/Sex: F344/FEMALE, Route: ORAL, Dose: 0, 3750, 7500 PPM IN DIET, Dose: 0, 3750, 7500 PPM IN DIET) was “inactive; negative”; the carcinogen call (Species: RAT, Strain/Sex: F344/MALE, Route: ORAL, Dose: 0, 3750, 7500 PPM IN DIET, Dose: 0, 3750, 7500 PPM IN DIET) is “inactive; negative”.
